In ChEMBL document CHEMBL4138146, “A Schmidt rearrangement-mediated synthesis of novel tetrahydro-benzo[1,4]diazepin-5-ones as potential anticancer and antiprotozoal agents” (Eur J Med Chem, 2017):

Assays:
Assay type in all cases: functional
SF-268 = experiment: Growth inhibition of human SF268 cells assessed as cell growth at 10^-8 M incubated for 48 hrs by sulforhodamine B assay relative to control; details: SF-268, 48 h, read-out: Activity
NCI/ADR-RES [1] = experiment: Growth inhibition of human NCI/ADR-RES cells assessed as cell growth at 10^-8 M incubated for 48 hrs by sulforhodamine B assay relative to control; details: read-out: Activity
NCI/ADR-RES [2] = experiment: Growth inhibition of human NCI/ADR-RES cells assessed as cell growth at 10^-7 M incubated for 48 hrs by sulforhodamine B assay relative to control; details: read-out: Activity
HOP-62 [3] = experiment: Growth inhibition of human HOP62 cells assessed as cell growth at 10^-8 M incubated for 48 hrs by sulforhodamine B assay relative to control; details: HOP-62, 48 h, read-out: Activity
786-0 = experiment: Growth inhibition of human 786-0 cells assessed as cell growth at 10^-4 M incubated for 48 hrs by sulforhodamine B assay relative to control; details: 786-0, 48 h, read-out: Activity
PC-3 = experiment: Growth inhibition of human PC3 cells assessed as cell growth at 10^-6 M incubated for 48 hrs by sulforhodamine B assay relative to control; details: PC-3, 48 h, read-out: Activity
BT-549 = experiment: Growth inhibition of human BT549 cells assessed as cell growth at 10^-6 M incubated for 48 hrs by sulforhodamine B assay relative to control; details: BT-549, 48 h, read-out: Activity
HOP-62 [4] = experiment: Growth inhibition of human HOP62 cells assessed as cell growth at 10^-6 M incubated for 48 hrs by sulforhodamine B assay relative to control; details: HOP-62, 48 h, read-out: Activity
OVCAR-4 [5] = experiment: Growth inhibition of human OVCAR4 cells assessed as cell growth at 10^-7 M incubated for 48 hrs by sulforhodamine B assay relative to control; details: OVCAR-4, 48 h, read-out: Activity
SNB-19 = experiment: Growth inhibition of human SNB19 cells assessed as cell growth at 10^-7 M incubated for 48 hrs by sulforhodamine B assay relative to control; details: SNB-19, 48 h, read-out: Activity
SNB-75 = experiment: Growth inhibition of human SNB75 cells assessed as cell growth at 10^-7 M incubated for 48 hrs by sulforhodamine B assay relative to control; details: SNB-75, 48 h, read-out: Activity
SK-MEL-2 = experiment: Growth inhibition of human SK-MEL-2 cells assessed as cell growth at 10^-5 M incubated for 48 hrs by sulforhodamine B assay relative to control; details: SK-MEL-2, 48 h, read-out: Activity
HL-60(TB) [6] = experiment: Growth inhibition of human HL-60(TB) cells assessed as cell growth at 10^-8 M incubated for 48 hrs by sulforhodamine B assay relative to control; details: HL-60, 48 h, read-out: Activity
UO-31 = experiment: Growth inhibition of human UO31 cells assessed as cell growth at 10^-6 M incubated for 48 hrs by sulforhodamine B assay relative to control; details: UO-31, 48 h, read-out: Activity
SK-OV-3 = experiment: Growth inhibition of human SKOV3 cells assessed as cell growth at 10^-7 M incubated for 48 hrs by sulforhodamine B assay relative to control; details: SK-OV-3, 48 h, read-out: Activity
T47D = experiment: Growth inhibition of human T47D cells assessed as cell growth at 10^-8 M incubated for 48 hrs by sulforhodamine B assay relative to control; details: read-out: Activity
CCRF-CEM = experiment: Growth inhibition of human CCRF-CEM cells assessed as cell growth at 10^-8 M incubated for 48 hrs by sulforhodamine B assay relative to control; details: read-out: Activity
U-251 [7] = experiment: Growth inhibition of human U251 cells assessed as cell growth at 10^-7 M incubated for 48 hrs by sulforhodamine B assay relative to control; details: U-251, 48 h, read-out: Activity
SF-539 = experiment: Growth inhibition of human SF539 cells assessed as cell growth at 10^-7 M incubated for 48 hrs by sulforhodamine B assay relative to control; details: SF-539, 48 h, read-out: Activity
MOLT-4 = experiment: Growth inhibition of human MOLT4 cells assessed as cell growth at 10^-6 M incubated for 48 hrs by sulforhodamine B assay relative to control; details: MOLT-4, 48 h, read-out: Activity
DU-145 = experiment: Growth inhibition of human DU145 cells assessed as cell growth at 10^-4 M incubated for 48 hrs by sulforhodamine B assay relative to control; details: DU-145, 48 h, read-out: Activity
NCI-H226 = experiment: Growth inhibition of human NCI-H226 cells assessed as cell growth at 10^-7 M incubated for 48 hrs by sulforhodamine B assay relative to control; details: NCI-H226, 48 h, read-out: Activity
M14 = experiment: Growth inhibition of human M14 cells assessed as cell growth at 10^-5 M incubated for 48 hrs by sulforhodamine B assay relative to control; details: M14, 48 h, read-out: Activity
OVCAR-8 = experiment: Growth inhibition of human OVCAR8 cells assessed as cell growth at 10^-6 M incubated for 48 hrs by sulforhodamine B assay relative to control; details: OVCAR-8, 48 h, read-out: Activity
HL-60(TB) [8] = experiment: Growth inhibition of human HL-60(TB) cells assessed as cell growth at 10^-7 M incubated for 48 hrs by sulforhodamine B assay relative to control; details: HL-60, 48 h, read-out: Activity
MCF7 = experiment: Growth inhibition of human MCF7 cells assessed as cell growth at 10^-5 M incubated for 48 hrs by sulforhodamine B assay relative to control; details: MCF7, 48 h, read-out: Activity
A498 = experiment: Growth inhibition of human A498 cells assessed as cell growth at 10^-7 M incubated for 48 hrs by sulforhodamine B assay relative to control; details: A498, 48 h, read-out: Activity
MDA-MB-435 = experiment: Growth inhibition of human MDA-MB-435 cells assessed as cell growth at 10^-8 M incubated for 48 hrs by sulforhodamine B assay relative to control; details: MDA-MB-435, 48 h, read-out: Activity
U-251 [9] = experiment: Growth inhibition of human U251 cells assessed as cell growth at 10^-4 M incubated for 48 hrs by sulforhodamine B assay relative to control; details: U-251, 48 h, read-out: Activity
SN12C = experiment: Growth inhibition of human SN12C cells assessed as cell growth at 10^-8 M incubated for 48 hrs by sulforhodamine B assay relative to control; details: read-out: Activity
UACC-257 [10] = experiment: Growth inhibition of human UACC257 cells assessed as cell growth at 10^-7 M incubated for 48 hrs by sulforhodamine B assay relative to control; details: UACC-257, 48 h, read-out: Activity
UACC-257 [11] = experiment: Growth inhibition of human UACC257 cells assessed as cell growth at 10^-6 M incubated for 48 hrs by sulforhodamine B assay relative to control; details: UACC-257, 48 h, read-out: Activity
OVCAR-4 [12] = experiment: Growth inhibition of human OVCAR4 cells assessed as cell growth at 10^-4 M incubated for 48 hrs by sulforhodamine B assay relative to control; details: OVCAR-4, 48 h, read-out: Activity
NCI-H460 = experiment: Growth inhibition of human NCI-H460 cells assessed as cell growth at 10^-7 M incubated for 48 hrs by sulforhodamine B assay relative to control; details: NCI-H460, 48 h, read-out: Activity

What does the source list for CCCCOc1nc2ccccc2cc1C1CNC(=O)c2ccccc2N1 (centres undefined)?
growth at 0.01 µM (SF-268): 95%; growth at 0.01 µM (NCI/ADR-RES [1]): 94%; growth at 0.1 µM (NCI/ADR-RES [2]): 97%; growth at 0.01 µM (HOP-62 [3]): 93%; growth at 100 µM (786-0): -76%; growth at 1 µM (PC-3): 89%; growth at 1 µM (BT-549): 84%; growth at 1 µM (HOP-62 [4]): 78%; growth at 0.1 µM (OVCAR-4 [5]): 98%; growth at 0.1 µM (SNB-19): 95%; growth at 0.1 µM (SNB-75): 89%; growth at 10 µM (SK-MEL-2): 33%; growth at 0.01 µM (HL-60(TB) [6]): 98%; growth at 1 µM (UO-31): 61%; growth at 0.1 µM (SK-OV-3): 98%; growth at 0.01 µM (T47D): 86%; growth at 0.01 µM (CCRF-CEM): 98%; growth at 0.1 µM (U-251 [7]): 96%; growth at 0.1 µM (SF-539): 93%; growth at 1 µM (MOLT-4): 92%; growth at 100 µM (DU-145): -43%; growth at 0.1 µM (NCI-H226): 79%; growth at 10 µM (M14): 4%; growth at 1 µM (OVCAR-8): 94%; growth at 0.1 µM (HL-60(TB) [8]): 26%; growth at 10 µM (MCF7): 11%; growth at 0.1 µM (A498): 62%; growth at 0.01 µM (MDA-MB-435): 95%; growth at 100 µM (U-251 [9]): -77%; growth at 0.01 µM (SN12C): 97%; growth at 0.1 µM (UACC-257 [10]): 92%; growth at 1 µM (UACC-257 [11]): 70%; growth at 100 µM (OVCAR-4 [12]): -37%; growth at 0.1 µM (NCI-H460): 102%
